The record followed here is ChEMBL document CHEMBL1151120, “Plant antimutagenic agents, 3. Coumarins” (J Nat Prod, 1988).

The first test deals with Salmonella typhimurium. Kind of test: Antimutagenic activity in Salmonella Typhimurium […] assessed as inhibition of 2-aminoanthracene-induced mutation at 300 ug/plate after 72 hrs in presence of Ames S-9 fraction. The format is functional, Salmonella enterica subsp. enterica serovar Typhimurium, T98.
Turning to `CC(C)=CCOc1c2occc2cc2ccc(=O)oc12` [PENTOSALEN], the “inhibition (INH)” value is listed as 0%.

Consider `COc1c2occc2cc2ccc(=O)oc12` [METHOXSALEN], for which the “inhibition (INH)” value turned out to be 0%.

For the compound `O=c1ccc2ccccc2o1` [COUMARIN], the “inhibition (INH)” value was 0%.

Take `COc1ccc2ccc(=O)oc2c1CC=C(C)C` [OSTHOLE]: the “inhibition (INH)” value stood at 0%.

`COc1c2ccoc2cc2oc(=O)ccc12` [BERGAPTEN]: the “inhibition (INH)” value is 0%.

In the next test the test system is Salmonella typhimurium. Nature of the test: Antimutagenic activity in Salmonella Typhimurium […] assessed as inhibition of benzo[a]pyrene-induced mutation at 150 ug/plate after 72 hrs in presence of Ames S-9 fraction. Type of test: functional, Salmonella enterica subsp. enterica serovar Typhimurium, T98.
Regarding `CC(C)=CCOc1c2occc2cc2ccc(=O)oc12` [PENTOSALEN], the “inhibition (INH)” value came out at 86%.

As for `COc1c2occc2cc2ccc(=O)oc12` [METHOXSALEN], the “inhibition (INH)” value was 58%.

For `O=c1ccc2ccccc2o1` [COUMARIN], the “inhibition (INH)” value was 10%.

In the case of `COc1ccc2ccc(=O)oc2c1CC=C(C)C` [OSTHOLE], the “inhibition (INH)” value is given as 13%.

`COc1c2ccoc2cc2oc(=O)ccc12` [BERGAPTEN]: the “inhibition (INH)” value is given as 61%.

For a further test, the system named is Salmonella typhimurium. Kind of test: Antimutagenic activity in Salmonella Typhimurium […] assessed as inhibition of acetylaminofluorene-induced mutation at 300 ug/plate after 72 hrs in presence of Ames S-9 fraction. Type of test: functional, Salmonella enterica subsp. enterica serovar Typhimurium, T98.
`CC(C)=CCOc1c2occc2cc2ccc(=O)oc12` [PENTOSALEN]: the “inhibition (INH)” value is 56%.

For the compound `COc1c2occc2cc2ccc(=O)oc12` [METHOXSALEN], the “inhibition (INH)” value is reported as 21%.

On to `O=c1ccc2ccccc2o1` [COUMARIN], for which the “inhibition (INH)” value amounted to 28%.

Turning to `COc1ccc2ccc(=O)oc2c1CC=C(C)C` [OSTHOLE], the “inhibition (INH)” value is on record as 56%.

Regarding `COc1c2ccoc2cc2oc(=O)ccc12` [BERGAPTEN], the “inhibition (INH)” value was 0%.

For the next test, the system named is Salmonella typhimurium. Nature of the test: Antimutagenic activity in Salmonella Typhimurium […] assessed as inhibition of 2-nitroflorene-induced mutation at 600 ug/plate after 72 hrs. Type of test: functional, Salmonella enterica subsp. enterica serovar Typhimurium, T98.
Consider `CC(C)=CCOc1c2occc2cc2ccc(=O)oc12` [PENTOSALEN], for which the “inhibition (INH)” value came out at 58%.

For `COc1c2occc2cc2ccc(=O)oc12` [METHOXSALEN], the “inhibition (INH)” value came to 25%.

In the case of `O=c1ccc2ccccc2o1` [COUMARIN], the “inhibition (INH)” value is on record as 73%.

As for `COc1ccc2ccc(=O)oc2c1CC=C(C)C` [OSTHOLE], the “inhibition (INH)” value is 80%.

For the compound `COc1c2ccoc2cc2oc(=O)ccc12` [BERGAPTEN], the “inhibition (INH)” value was 40%.

The next test has as its system Salmonella typhimurium. Nature of the test: Antimutagenic activity in Salmonella Typhimurium […] assessed as inhibition of benzo[a]pyrene-induced mutation at 300 ug/plate after 72 hrs in presence of Ames S-9 fraction. Type of test: functional, Salmonella enterica subsp. enterica serovar Typhimurium, T98.
Turning to `CC(C)=CCOc1c2occc2cc2ccc(=O)oc12` [PENTOSALEN], the “inhibition (INH)” value is given as 87%.

Regarding `COc1c2occc2cc2ccc(=O)oc12` [METHOXSALEN], the “inhibition (INH)” value amounted to 76%.

`O=c1ccc2ccccc2o1` [COUMARIN]: the “inhibition (INH)” value was determined as 16%.

For the compound `COc1ccc2ccc(=O)oc2c1CC=C(C)C` [OSTHOLE], the “inhibition (INH)” value is reported as 49%.

Turning to `COc1c2ccoc2cc2oc(=O)ccc12` [BERGAPTEN], the “inhibition (INH)” value is recorded as 67%.

The next test relates to Salmonella typhimurium. Nature of the test: Antimutagenic activity in Salmonella Typhimurium […] assessed as inhibition of 2-aminoanthracene-induced mutation at 600 ug/plate after 72 hrs in presence of Ames S-9 fraction. The format is functional, Salmonella enterica subsp. enterica serovar Typhimurium, T98.
On to `CC(C)=CCOc1c2occc2cc2ccc(=O)oc12` [PENTOSALEN], for which the “inhibition (INH)” value is reported as 81%.

Consider `O=c1ccc2cc3ccoc3cc2o1` [PSORALEN], for which the “inhibition (INH)” value turned out to be 60%.

Take `O=c1ccc2ccc(O)cc2o1` [UMBELLIFERONE]: the “inhibition (INH)” value came to 14%.

As to `COc1c2occc2cc2ccc(=O)oc12` [METHOXSALEN], the “inhibition (INH)” value is reported as 44%.

For the compound `O=c1ccc2ccccc2o1` [COUMARIN], the “inhibition (INH)” value turned out to be 22%.

For the compound `COc1ccc2ccc(=O)oc2c1CC=C(C)C` [OSTHOLE], the “inhibition (INH)” value was determined as 68%.

In the case of `COc1c2ccoc2cc2oc(=O)ccc12` [BERGAPTEN], the “inhibition (INH)” value amounted to 23%.

The test system of the next test is Salmonella typhimurium. Nature of the test: Antimutagenic activity in Salmonella Typhimurium […] assessed as inhibition of acetylaminofluorene-induced mutation at 150 ug/plate after 72 hrs in presence of Ames S-9 fraction. The format is functional, Salmonella enterica subsp. enterica serovar Typhimurium, T98.
Consider `CC(C)=CCOc1c2occc2cc2ccc(=O)oc12` [PENTOSALEN], for which the “inhibition (INH)” value is reported as 35%.

In the case of `COc1c2occc2cc2ccc(=O)oc12` [METHOXSALEN], the “inhibition (INH)” value is on record as 0%.

As for `O=c1ccc2ccccc2o1` [COUMARIN], the “inhibition (INH)” value is 5%.

As to `COc1ccc2ccc(=O)oc2c1CC=C(C)C` [OSTHOLE], the “inhibition (INH)” value came out at 51%.

For the compound `COc1c2ccoc2cc2oc(=O)ccc12` [BERGAPTEN], the “inhibition (INH)” value was 0%.

The test system of another test is Salmonella typhimurium. Nature of the test: Antimutagenic activity in Salmonella Typhimurium […] assessed as inhibition of acetylaminofluorene-induced mutation at 600 ug/plate after 72 hrs in presence of Ames S-9 fraction. Type of test: functional, Salmonella enterica subsp. enterica serovar Typhimurium, T98.
As to `COc1c2occc2cc2ccc(=O)oc12` [METHOXSALEN], the “inhibition (INH)” value is 39%.

For `O=c1ccc2ccccc2o1` [COUMARIN], the “inhibition (INH)” value is 36%.

Regarding `COc1ccc2ccc(=O)oc2c1CC=C(C)C` [OSTHOLE], the “inhibition (INH)” value is 74%.

`COc1c2ccoc2cc2oc(=O)ccc12` [BERGAPTEN]: the “inhibition (INH)” value came out at 0%.

A further test has as its system Salmonella typhimurium. Nature of the test: Antimutagenic activity in Salmonella Typhimurium […] assessed as inhibition of 2-nitroflorene-induced mutation at 150 ug/plate after 72 hrs. The format is functional, Salmonella enterica subsp. enterica serovar Typhimurium, T98.
As to `CC(C)=CCOc1c2occc2cc2ccc(=O)oc12` [PENTOSALEN], the “inhibition (INH)” value stood at 22%.

With `COc1c2occc2cc2ccc(=O)oc12` [METHOXSALEN], the “inhibition (INH)” value is recorded as 5%.

With `O=c1ccc2ccccc2o1` [COUMARIN], the “inhibition (INH)” value is 24%.

In the case of `COc1ccc2ccc(=O)oc2c1CC=C(C)C` [OSTHOLE], the “inhibition (INH)” value is recorded as 29%.

Turning to `COc1c2ccoc2cc2oc(=O)ccc12` [BERGAPTEN], the “inhibition (INH)” value is recorded as 27%.

Another test relates to Salmonella typhimurium. Nature of the test: Antimutagenic activity in Salmonella Typhimurium […] assessed as inhibition of 2-nitroflorene-induced mutation at 300 ug/plate after 72 hrs. The format is functional, Salmonella enterica subsp. enterica serovar Typhimurium, T98.
Take `CC(C)=CCOc1c2occc2cc2ccc(=O)oc12` [PENTOSALEN]: the “inhibition (INH)” value stood at 43%.

As to `COc1c2occc2cc2ccc(=O)oc12` [METHOXSALEN], the “inhibition (INH)” value is recorded as 39%.

`O=c1ccc2ccccc2o1` [COUMARIN]: the “inhibition (INH)” value turned out to be 17%.

As for `COc1ccc2ccc(=O)oc2c1CC=C(C)C` [OSTHOLE], the “inhibition (INH)” value is listed as 55%.

`COc1c2ccoc2cc2oc(=O)ccc12` [BERGAPTEN]: the “inhibition (INH)” value was determined as 41%.

A further test has as its system Salmonella typhimurium. Kind of test: Antimutagenic activity in Salmonella Typhimurium […] assessed as inhibition of benzo[a]pyrene-induced mutation at 600 ug/plate after 72 hrs in presence of Ames S-9 fraction. The format is functional, Salmonella enterica subsp. enterica serovar Typhimurium, T98.
As for `CC(C)=CCOc1c2occc2cc2ccc(=O)oc12` [PENTOSALEN], the “inhibition (INH)” value stood at 90%.

`COc1c2occc2cc2ccc(=O)oc12` [METHOXSALEN]: the “inhibition (INH)” value came out at 86%.

Take `O=c1ccc2ccccc2o1` [COUMARIN]: the “inhibition (INH)” value was 53%.

As to `COc1ccc2ccc(=O)oc2c1CC=C(C)C` [OSTHOLE], the “inhibition (INH)” value amounted to 54%.

As to `COc1c2ccoc2cc2oc(=O)ccc12` [BERGAPTEN], the “inhibition (INH)” value was 75%.

The next test has as its system Salmonella typhimurium. Nature of the test: Antimutagenic activity in Salmonella Typhimurium […] assessed as inhibition of 2-aminoanthracene-induced mutation at 150 ug/plate after 72 hrs in presence of Ames S-9 fraction. Type of test: functional, Salmonella enterica subsp. enterica serovar Typhimurium, T98.
For `CC(C)=CCOc1c2occc2cc2ccc(=O)oc12` [PENTOSALEN], the “inhibition (INH)” value is 0%.

Turning to `COc1c2occc2cc2ccc(=O)oc12` [METHOXSALEN], the “inhibition (INH)” value was 0%.

With `O=c1ccc2ccccc2o1` [COUMARIN], the “inhibition (INH)” value is 0%.

As to `COc1ccc2ccc(=O)oc2c1CC=C(C)C` [OSTHOLE], the “inhibition (INH)” value is listed as 0%.

On to `COc1c2ccoc2cc2oc(=O)ccc12` [BERGAPTEN], for which the “inhibition (INH)” value is given as 0%.
